The target in data set [1] is HPK1 (Homo sapiens, UniProt Q92918). Kind of data set: HTRF enzymatic assay. The format is biochemical.
Data set [2] in a line: in vitro. Further details: species or system CT26. The following applies: human, hepg2 cells.
Data set [3] in a line: in vitro. The following applies: mouse, ct26 cells. Further details: species or system HepG2.
Data set [4] deals with human primary T cells. Kind of data set: cells. The conditions noted are these: T-cell, read-out: IL-2 increase EC50 (nM).
The nature of data set [5]: physchem. The conditions noted are these: aqueous buffer, pH 7.4, aqueous buffer.
A short description of data set [6]: in vitro. The conditions noted are these: human, hepatocytes.
The nature of data set [7]: in vitro. The conditions noted are these: human, Caco-2.
Data set [8] in a line: in vitro. The conditions noted are these: mouse, hepatocytes.
Data set [9] in a line: in vitro. The following applies: rat, hepatocytes.
The nature of data set [10]: in vitro. The conditions noted are these: dog, hepatocytes.
Data set [11] in a line: in vitro. The conditions noted are these: human, plasma.
Data set [12] in a line: in vitro. The conditions noted are these: mouse, plasma.
The nature of data set [13]: in vitro. The following applies: rat, plasma.
Data set [14] is described as follows: in vitro. The conditions noted are these: dog, plasma.
In data set [15] the target is CYP2C9 (Homo sapiens, UniProt P11712). Kind of data set: in vitro.
Data set [16] has as its target CYP2D6 (Homo sapiens, UniProt P10635). Kind of data set: in vitro.
Data set [17] concerns the target CYP2C19 (Homo sapiens, UniProt P33261). Kind of data set: in vitro.
Data set [18] deals with T1, CYP1A2 (Homo sapiens, UniProt P05177).
T1 sequence (P05177 1-516): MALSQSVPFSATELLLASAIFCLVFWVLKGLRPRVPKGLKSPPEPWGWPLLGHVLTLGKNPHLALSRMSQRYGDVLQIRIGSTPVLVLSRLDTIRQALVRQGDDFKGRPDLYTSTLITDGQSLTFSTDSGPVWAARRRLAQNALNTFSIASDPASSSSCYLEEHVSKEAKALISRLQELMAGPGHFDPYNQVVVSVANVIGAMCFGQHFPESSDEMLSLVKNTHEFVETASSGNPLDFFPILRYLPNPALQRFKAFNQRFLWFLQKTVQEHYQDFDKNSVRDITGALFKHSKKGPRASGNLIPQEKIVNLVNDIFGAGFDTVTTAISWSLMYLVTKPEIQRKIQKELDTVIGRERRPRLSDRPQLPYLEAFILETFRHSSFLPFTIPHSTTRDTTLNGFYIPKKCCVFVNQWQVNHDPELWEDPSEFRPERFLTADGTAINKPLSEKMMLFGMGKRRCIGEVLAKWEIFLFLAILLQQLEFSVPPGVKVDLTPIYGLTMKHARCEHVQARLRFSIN
Kind of data set: in vitro.

In data set [19] the target is T2, PXR (Homo sapiens, UniProt O75469).
T2 sequence (O75469 1-434): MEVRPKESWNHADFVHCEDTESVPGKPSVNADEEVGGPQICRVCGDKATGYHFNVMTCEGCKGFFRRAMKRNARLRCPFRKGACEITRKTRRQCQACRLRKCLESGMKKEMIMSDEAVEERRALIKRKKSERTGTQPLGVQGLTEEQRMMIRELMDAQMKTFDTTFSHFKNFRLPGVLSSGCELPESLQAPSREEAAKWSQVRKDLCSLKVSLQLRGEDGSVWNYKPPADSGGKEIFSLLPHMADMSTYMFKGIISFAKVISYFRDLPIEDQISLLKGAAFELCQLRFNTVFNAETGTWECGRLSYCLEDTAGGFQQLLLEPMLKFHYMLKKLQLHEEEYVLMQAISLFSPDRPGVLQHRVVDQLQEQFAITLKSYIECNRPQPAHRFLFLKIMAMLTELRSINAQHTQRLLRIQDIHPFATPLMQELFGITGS
Kind of data set: in vitro.

Data set [20] concerns the target T3, hERG (Homo sapiens, UniProt Q12809, species not given). Kind of data set: in vitro.
For data set [21], the target named is T3, hERG. Kind of data set: in vitro. The source holds these as a separate data set.

Each structure is given as a SMILES string. Values after ≈ are worked out from the molar mass of the structure shown.

T3 sequence (Q12809 whole entry): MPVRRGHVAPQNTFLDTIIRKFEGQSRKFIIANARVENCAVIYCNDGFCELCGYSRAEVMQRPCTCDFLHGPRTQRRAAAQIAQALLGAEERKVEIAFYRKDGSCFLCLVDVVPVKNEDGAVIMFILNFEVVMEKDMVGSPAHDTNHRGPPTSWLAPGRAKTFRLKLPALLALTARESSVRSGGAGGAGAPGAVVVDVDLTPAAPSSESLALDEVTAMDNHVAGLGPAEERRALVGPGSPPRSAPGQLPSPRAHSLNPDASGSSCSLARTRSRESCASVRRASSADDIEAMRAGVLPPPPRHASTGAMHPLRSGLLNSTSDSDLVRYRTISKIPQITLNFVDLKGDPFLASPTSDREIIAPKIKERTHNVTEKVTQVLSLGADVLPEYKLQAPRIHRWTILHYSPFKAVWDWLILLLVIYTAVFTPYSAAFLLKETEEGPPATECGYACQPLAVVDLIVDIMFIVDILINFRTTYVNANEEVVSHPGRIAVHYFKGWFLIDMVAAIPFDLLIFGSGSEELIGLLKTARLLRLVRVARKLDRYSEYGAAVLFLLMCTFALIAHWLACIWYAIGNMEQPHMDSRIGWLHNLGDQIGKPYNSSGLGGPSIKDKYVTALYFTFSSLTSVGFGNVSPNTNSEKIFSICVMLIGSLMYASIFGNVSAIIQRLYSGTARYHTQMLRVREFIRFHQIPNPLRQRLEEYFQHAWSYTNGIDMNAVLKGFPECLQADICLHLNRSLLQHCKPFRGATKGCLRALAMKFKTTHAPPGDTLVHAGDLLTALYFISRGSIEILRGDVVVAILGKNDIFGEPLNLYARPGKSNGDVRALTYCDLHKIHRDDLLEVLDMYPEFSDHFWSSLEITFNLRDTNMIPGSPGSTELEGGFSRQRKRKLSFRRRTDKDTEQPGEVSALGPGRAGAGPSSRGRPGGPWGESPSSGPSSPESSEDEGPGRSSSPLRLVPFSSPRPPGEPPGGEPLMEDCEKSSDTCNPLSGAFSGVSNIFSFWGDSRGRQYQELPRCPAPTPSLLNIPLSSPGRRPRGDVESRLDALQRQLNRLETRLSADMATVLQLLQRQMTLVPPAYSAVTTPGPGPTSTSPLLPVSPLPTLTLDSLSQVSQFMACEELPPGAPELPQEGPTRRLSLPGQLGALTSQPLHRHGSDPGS
HPK1, sequence (Q92918 whole entry): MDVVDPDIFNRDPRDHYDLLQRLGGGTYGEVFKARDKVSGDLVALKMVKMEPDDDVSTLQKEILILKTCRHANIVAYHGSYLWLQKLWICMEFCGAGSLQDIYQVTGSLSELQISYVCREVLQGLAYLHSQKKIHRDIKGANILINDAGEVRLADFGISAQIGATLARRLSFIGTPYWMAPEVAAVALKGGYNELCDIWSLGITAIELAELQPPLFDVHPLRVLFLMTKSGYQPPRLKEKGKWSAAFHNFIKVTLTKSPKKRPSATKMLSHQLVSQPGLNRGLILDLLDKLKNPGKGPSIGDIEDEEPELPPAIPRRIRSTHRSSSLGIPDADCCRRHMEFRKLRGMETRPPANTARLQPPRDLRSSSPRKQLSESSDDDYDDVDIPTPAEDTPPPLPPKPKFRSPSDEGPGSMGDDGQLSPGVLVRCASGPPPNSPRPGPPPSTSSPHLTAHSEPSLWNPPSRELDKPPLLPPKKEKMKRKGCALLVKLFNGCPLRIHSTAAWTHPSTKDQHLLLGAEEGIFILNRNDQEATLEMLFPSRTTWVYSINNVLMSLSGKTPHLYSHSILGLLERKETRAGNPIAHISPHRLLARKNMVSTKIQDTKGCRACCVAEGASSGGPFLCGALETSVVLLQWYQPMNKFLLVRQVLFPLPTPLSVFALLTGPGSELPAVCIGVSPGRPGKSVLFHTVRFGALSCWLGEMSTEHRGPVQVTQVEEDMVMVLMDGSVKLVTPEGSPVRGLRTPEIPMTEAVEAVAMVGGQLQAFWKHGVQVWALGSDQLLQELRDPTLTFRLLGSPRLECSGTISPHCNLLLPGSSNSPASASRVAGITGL
CYP2C9, sequence (P11712 whole entry): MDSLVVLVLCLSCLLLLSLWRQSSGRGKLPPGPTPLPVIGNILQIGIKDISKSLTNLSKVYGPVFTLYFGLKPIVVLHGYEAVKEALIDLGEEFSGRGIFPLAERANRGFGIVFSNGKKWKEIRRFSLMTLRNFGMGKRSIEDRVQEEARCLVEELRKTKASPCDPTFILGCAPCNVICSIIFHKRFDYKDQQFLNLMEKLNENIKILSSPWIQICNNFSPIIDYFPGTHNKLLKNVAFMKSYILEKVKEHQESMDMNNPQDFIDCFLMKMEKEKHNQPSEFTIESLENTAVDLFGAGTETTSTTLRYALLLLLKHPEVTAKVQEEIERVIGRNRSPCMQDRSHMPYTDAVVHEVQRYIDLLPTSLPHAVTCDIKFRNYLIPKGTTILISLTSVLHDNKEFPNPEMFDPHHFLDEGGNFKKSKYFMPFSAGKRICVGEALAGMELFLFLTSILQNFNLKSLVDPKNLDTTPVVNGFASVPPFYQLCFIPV
CYP2C19, sequence (P33261 whole entry): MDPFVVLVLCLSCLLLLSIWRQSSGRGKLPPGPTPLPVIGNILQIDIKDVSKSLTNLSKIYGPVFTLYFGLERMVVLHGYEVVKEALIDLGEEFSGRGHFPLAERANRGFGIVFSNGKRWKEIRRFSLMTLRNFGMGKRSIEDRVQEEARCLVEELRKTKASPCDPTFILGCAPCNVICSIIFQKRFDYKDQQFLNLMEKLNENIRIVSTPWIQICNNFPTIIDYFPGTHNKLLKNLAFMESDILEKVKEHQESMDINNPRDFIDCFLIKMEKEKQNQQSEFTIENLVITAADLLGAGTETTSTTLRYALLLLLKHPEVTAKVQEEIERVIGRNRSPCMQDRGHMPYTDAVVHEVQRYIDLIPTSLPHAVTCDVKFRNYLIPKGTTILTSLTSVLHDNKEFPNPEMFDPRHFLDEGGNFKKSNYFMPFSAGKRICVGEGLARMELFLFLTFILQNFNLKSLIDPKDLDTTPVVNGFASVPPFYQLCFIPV
CYP2D6, sequence (P10635 whole entry): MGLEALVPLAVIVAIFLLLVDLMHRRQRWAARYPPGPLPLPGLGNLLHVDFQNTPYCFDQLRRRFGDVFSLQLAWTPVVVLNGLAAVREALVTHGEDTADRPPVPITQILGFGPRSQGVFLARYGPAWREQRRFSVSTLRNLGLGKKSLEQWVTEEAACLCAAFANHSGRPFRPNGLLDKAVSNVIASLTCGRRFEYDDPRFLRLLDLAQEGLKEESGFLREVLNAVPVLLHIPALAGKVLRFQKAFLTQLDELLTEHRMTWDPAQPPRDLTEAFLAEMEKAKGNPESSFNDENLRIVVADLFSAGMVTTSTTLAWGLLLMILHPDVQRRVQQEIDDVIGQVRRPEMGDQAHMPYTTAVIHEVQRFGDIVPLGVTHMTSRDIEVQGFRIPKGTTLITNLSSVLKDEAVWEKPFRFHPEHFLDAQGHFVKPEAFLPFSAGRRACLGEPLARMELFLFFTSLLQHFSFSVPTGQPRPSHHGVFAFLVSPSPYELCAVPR

The IC50 is the concentration that gives 50% inhibition. Consider `COc1cccn2c(-c3cc4c(c5c3CCNC5=O)Nc3ccc(N5CCOCC5)cc3C4(C)C)cnc12` [compound 3, Cmpd. 3], for which the IC50 in data set [1] came to 9.3 nM.
Same read-out and setting: the figure for `COc1cccn2c(-c3cc4c(c5c3CNC5=O)Nc3ccc(N5CCOCC5)cc3C4(C)C)cnc12` [compound 4, Cmpd. 4] is 8.9 nM.
One may read the CC50 as the concentration giving 50% cytotoxicity. Read a high CC50 as better tolerance by the cells. As usually defined, the EC50 is the concentration needed to bring the measured effect to its halfway point. One may read the solubility as the dissolved amount per volume that the medium holds. Read a low solubility as a poorly soluble substance. One may read the half-life as the time in which the quantity being followed falls by half. A high value points to slow loss. A word on the efflux ratio: it is the permeability from basolateral to apical divided by that in the opposite direction, in the common usage. A word on the fraction unbound: it is free concentration divided by total concentration. Low readings indicate extensive binding, high ones weak binding. Usually inhibition stands for how much of the control response was suppressed. High values mean strong suppression, low ones little suppression. Consider `CO[C@H]1CCCn2c(-c3cc4c(c5c3CNC5=O)Nc3ccc(N5CCOCC5)cc3C4(C)C)cnc21` [compound 6, Cmpd. 6], for which the CC50 in [2] was 3290 nM; in data set [3] it was 7800 nM. The EC50 in data set [4] is 9.5 nM. In [5], this molecule showed a solubility of 56.3 µM (≈ 28.1 µg/mL). Also, the half-life turned out to be 37.7 h in data set [6], 2.68 h in [8], 3.93 h in [9] and 3.42 h in [10]. For the same molecule, the efflux ratio in data set [7] turned out to be 2.72. The fraction unbound is 0.046 in data set [11], 0.023 in [12], 0.0386 in [13] and 0.0112 in [14]. The inhibition at 10 µM in data set [15] is 24.5%; in data set [16] it was 20.7%; in [17], 53.6%; in [18], 9%; in data set [20], 74.5%. Further, in data set [19], the activity at 1 µM amounted to 2%. The IC50 in [21] was 5160 nM.

The values are drawn from doi:10.1101/2025.09.23.678079v1 (biorxiv, 2025).
